Like-named read-outs stand apart in the source and are kept apart here.
Tested on: HCMV
Type: cell-based
Conditions: for IRS1 (P09715) protein level / TRS1 (P09695) protein level / UL13 (P16755) protein level / UL36 (P16767) protein level / UL37 (P16778) protein level / UL122 (P19893) protein level / UL123 (P13202) protein level: IE
Protocol: In example herpesvirus PRM assay methods shown herein, cell pellets were lysed in 2% SDS, 100 mM NaCl, 0.5 mM EDTA, 50 mM Tris, pH 8.2, and 50 μg of protein was reduced and alkylated with 25 mM TCEP and 50 mM CAM respectively for 20 min at 70° C. Proteins were then precipitated via methanol chloroform precipitation (Wessel & Flugg, Anal Biochem. 138(1):141-143, 1984), resuspended in 50 mM HEPES, pH 8.2 and digested overnight with trypsin (50:1 protein:enzyme w/w ratio). Digested peptides were desalted by SDB-RPS StageTip as previously described (Lum et al., Cell Syst., 7(6):[…], 2018; Greco et al., Methods Mol Biol 1410:39-63, 2016; Federspiel & Cristea, Methods Mol Biol., 1977:115-143, 2019).
Peptides (1.0 μg on column) were analyzed by LC-MS/MS using a Dionex Ultimate 3000 UHPLC coupled online to an EASYSpray ion source and a Q Exactive HF. Peptides were separated on an EASYSpray C18 column (75 μm×25 cm) heated to 50° C. using a linear gradient of 5% B to 32% B over 60 min at a flow rate of 250 nL/min and were ionized at 1.7 kv. Mobile phase A consisted of 0.1% FA in H2O and mobile phase B consisted of 0.1% FA, 2.9% H2O in ACN.
The PRM method was controlled by a peptide inclusion list with retention time windows of 6 min for selected precursor ions.
The PRM assay was developed and analyzed using the open-source software Skyline (Maclean et al., Bioinformatics 26(7):966-968, 2010). Summed area under the curve of 3-4 transitions per peptide was used for quantitation. Targeted peptides were normalized to host protein loading control peptides. Peptide values for each sample were scaled to the average of each peptide across all runs. The average of multiple peptides was used as the inferred value for the protein measurement when more than one peptide was quantified (Federspiel et al., PLoS Biol. 17(9):e3000437. Doi: 10.1371/journal.pbio.3000437). PRM quantitation data were graphed using the Python Seaborn and Matplotlib libraries.
MRC5 primary human fibroblasts (HFs) (ATCC CCL-171) were used as the model system for HSV-1 and HCMV infections and were cultured in complete growth medium (DMEM supplemented with 10% fetal bovine serum and 1% penicillin-streptomycin antibiotics) at 37° C. and 5% CO2. iSLK.219 cells harboring latent KSHV (a gift from Dr. Britt Glaunsinger, University of California, Berkeley) were grown in complete growth medium supplemented with 500 μg/ml hygromycin (ThermoFisher Scientific, 10687010) at 37° C. and 5% CO2. All cells were used for experiments within a maximum of 10 passages.
Wild type HSV-1 strain 17+ (a gift from Beate Sodeik, Hannover Medical School, Hannover, Germany) was propagated as previously described (Diner et al., 2015). Briefly, PO stocks were generated by electroporating pBAC-HSV-1 into U-2 OS cells. […] In a similar manner, wild type HCMV strain AD169 was produced from BAC electroporation into HFs and working stocks were propagated by infecting HFs at a low level. In both cases, cell-associated virus was released by sonication, combined with supernatant virus, then concentrated by ultracentrifugation (20,000 rpm, 2 hours, 4° C. with SW28 swinging bucket rotor [Beckman Coulter]) over a 10% ficoll (HSV-1) or 20% sorbitol (HCMV) cushion. Virus stock titers were determined by plaque assay for HSV-1 or tissue culture infectious dose (TCID50) for HCMV and infections were performed at a multiplicity of infection (MOI) of 3.
12 hours prior to virus infection or reactivation, cells were treated with either the small molecule drug or DMSO/PBS control at an equivalent volume. […] For infection cycles lasting longer than 24 hours, small molecule drugs were re-added to the cell culture medium every 24 hours. Upon collection, cells were rinsed with PBS, scraped into a microcentrifuge tube, pelleted by centrifugation, and rinsed again with PBS.

For `Nc1c(S(=O)(=O)c2ccccc2)c2nc3ccccc3nc2n1-c1ccc(F)cc1` [CAY10602], the “UL102 (P16827) protein level” value (timepoint 48, DE) was 0.7866, the “UL104 (P16735) protein level” value (timepoint 48, DE) was 0.07399 and the “UL112/UL113 (P17151) protein level” value (timepoint 48, DE) was 0.423. For the same compound, the “UL114 (P16769) protein level” value (timepoint 48, DE) was 0.7709, the “UL119/UL118 (P16739) protein level” value (timepoint 48, DE) was 0.3402 and the “UL128 (P16837) protein level” value (timepoint 48, DE) was 0.06729. The “US8 (P09730) protein level” value (timepoint 48, DE) was 0.8905, the “US9 (P09729) protein level” value (timepoint 48, DE) was 0.6117 and the “US12 (P09721) protein level” value (timepoint 48, DE) was 0.9446. The “US13 (P09720) protein level” value (timepoint 48, DE) was 0.9123, the “US14 (P09719) protein level” value (timepoint 48, DE) was 0.1589 and the “US18 (P69334) protein level” value (timepoint 48, DE) was 0.5367. The “US22 (P09722) protein level” value (timepoint 48, DE) was 0.542, the “US23 (P09701) protein level” value (timepoint 48, DE) was 0.4283 and the “US24 (P09700) protein level” value (timepoint 48, DE) was 0.42. The “US34 (P09709) protein level” value (timepoint 48, DE) was 0.4118, the “gB (P06473) protein level” value (timepoint 48, DE) was 0.09671 and the “IRS1 (P09715) protein level” value (timepoint 48) was 0.5813. For the same compound, the “TRS1 (P09695) protein level” value (timepoint 48) was 0.446, the “UL13 (P16755) protein level” value (timepoint 48) was 0.4405 and the “UL36 (P16767) protein level” value (timepoint 48) was 0.9117. The “UL37 (P16778) protein level” value (timepoint 48) was 0.7557, the “UL122 (P19893) protein level” value (timepoint 48) was 0.05121 and the “UL123 (P13202) protein level” value (timepoint 48) was 0.5672. For the same compound, the “CVC1 (P16799) protein level” value (timepoint 48, L) was 0.1115, the “IR11 (P16809) protein level” value (timepoint 48, L) was 0.3707 and the “MCP (P16729) protein level” value (timepoint 48, L) was 0.006609. The “SCP (Q7M6N6) protein level” value (timepoint 48, L) was 0.004793, the “TRM2 (P16792) protein level” value (timepoint 48, L) was 0.05665 and the “UL22A (P16845) protein level” value (timepoint 48, L) was 0.1015. The “UL25 (P16761) protein level” value (timepoint 48, L) was 0.0624, the “UL29 (P16764) protein level” value (timepoint 48, L) was 0.7556 and the “UL30 (P16765) protein level” value (timepoint 48, L) was 0.1538. The “UL31 (P16848) protein level” value (timepoint 48, L) was 0.1445, the “UL43 (P16781) protein level” value (timepoint 48, L) was 0.04992 and the “UL52 (P16793) protein level” value (timepoint 48, L) was 0.05111. The “UL80 (P16753) protein level” value (timepoint 48, L) was 0.03588, the “UL82 (P06726) protein level” value (timepoint 48, L) was 0.1061 and the “UL88 (P16731) protein level” value (timepoint 48, L) was 0.08754. The “UL94 (P16800) protein level” value (timepoint 48, L) was 0.07429, the “UL99 (P13200) protein level” value (timepoint 48, L) was 0.05165 and the “UL103 (P16734) protein level” value (timepoint 48, L) was 0.1567. The “UL117 (P16770) protein level” value (timepoint 48, L) was 0.383, the “gH (P12824) protein level” value (timepoint 48, L) was 0.06336 and the “gL (P16832) protein level” value (timepoint 48, L) was 0.05192. For the same compound, the “gM (P16733) protein level” value (timepoint 48, L) was 0.02415, the “gN (P16795) protein level” value (timepoint 48, L) was 0.1118 and the “DUT (P16824) protein level” value (timepoint 48, LL) was 0.2582. For the same compound, the “IR12 (P16810) protein level” value (timepoint 48, LL) was 0.2908, the “TRM3 (P16732) protein level” value (timepoint 48, LL) was 0.01695 and the “TRX1 (P16783) protein level” value (timepoint 48, LL) was 0.006112. For the same compound, the “TRX2 (P16728) protein level” value (timepoint 48, LL) was 0.006041, the “UL24 (P16760) protein level” value (timepoint 48, LL) was 0.1155 and the “UL40 (P16780) protein level” value (timepoint 48, LL) was 0.63. For the same compound, the “UL47 (P16784) protein level” value (timepoint 48, LL) was 0.02023, the “UL49 (P16786) protein level” value (timepoint 48, LL) was 0.187 and the “UL69 (P16749) protein level” value (timepoint 48, LL) was 0.1615. For the same compound, the “UL70 (P17149) protein level” value (timepoint 48, LL) was 0.3937, the “UL83 (P06725) protein level” value (timepoint 48, LL) was 0.02048 and the “UL132 (P69338) protein level” value (timepoint 48, LL) was 0.09662. The “US15 (P09718) protein level” value (timepoint 48, LL) was 0.5168, the “CVC2 (P16726) protein level” value (timepoint 72, DE) was 0.03983 and the “DBP (P17147) protein level” value (timepoint 72, DE) was 0.391. The “HELI (P16736) protein level” value (timepoint 72, DE) was 0.5709, the “IR01 (P09710) protein level” value (timepoint 72, DE) was 0.2588 and the “NEC2 (P16791) protein level” value (timepoint 72, DE) was 0.11. For the same compound, the “RIR1 (P16782) protein level” value (timepoint 72, DE) was 0.1099, the “TRM1 (P16724) protein level” value (timepoint 72, DE) was 0.1317 and the “UL4 (P17146) protein level” value (timepoint 72, DE) was 0.06765. The “UL26 (P16762) protein level” value (timepoint 72, DE) was 0.1023, the “UL32 (P08318) protein level” value (timepoint 72, DE) was 0.02678 and the “UL34 (P16812) protein level” value (timepoint 72, DE) was 0.09048. For the same compound, the “UL35 (P16766) protein level” value (timepoint 72, DE) was 0.02871, the “UL38 (P16779) protein level” value (timepoint 72, DE) was 0.5839 and the “UL44 (P16790) protein level” value (timepoint 72, DE) was 0.07887. For the same compound, the “UL48 (P16785) protein level” value (timepoint 72, DE) was 0.0801, the “UL54 (P08546) protein level” value (timepoint 72, DE) was 0.6639 and the “UL71 (P16823) protein level” value (timepoint 72, DE) was 0.3054. For the same compound, the “UL78 (P16751) protein level” value (timepoint 72, DE) was 0.3616, the “UL84 (P16727) protein level” value (timepoint 72, DE) was 0.08785 and the “UL95 (P16801) protein level” value (timepoint 72, DE) was 0.157. For the same compound, the “UL96 (P16787) protein level” value (timepoint 72, DE) was 0.2632, the “UL97 (P16788) protein level” value (timepoint 72, DE) was 0.1687 and the “UL98 (P16789) protein level” value (timepoint 72, DE) was 0.2967. The “UL102 (P16827) protein level” value (timepoint 72, DE) was 0.7626, the “UL104 (P16735) protein level” value (timepoint 72, DE) was 0.1005 and the “UL112/UL113 (P17151) protein level” value (timepoint 72, DE) was 0.3808. The “UL114 (P16769) protein level” value (timepoint 72, DE) was 0.6517, the “UL119/UL118 (P16739) protein level” value (timepoint 72, DE) was 0.4195 and the “UL128 (P16837) protein level” value (timepoint 72, DE) was 0.04728. The “US8 (P09730) protein level” value (timepoint 72, DE) was 0.5794, the “US9 (P09729) protein level” value (timepoint 72, DE) was 0.5649 and the “US12 (P09721) protein level” value (timepoint 72, DE) was 0.4239. The “US13 (P09720) protein level” value (timepoint 72, DE) was 0.5351, the “US14 (P09719) protein level” value (timepoint 72, DE) was 0.1559 and the “US18 (P69334) protein level” value (timepoint 72, DE) was 0.5415. For the same compound, the “US22 (P09722) protein level” value (timepoint 72, DE) was 0.4813, the “US23 (P09701) protein level” value (timepoint 72, DE) was 0.3933 and the “US24 (P09700) protein level” value (timepoint 72, DE) was 0.3114. For the same compound, the “US34 (P09709) protein level” value (timepoint 72, DE) was 0.2066, the “gB (P06473) protein level” value (timepoint 72, DE) was 0.1022 and the “IRS1 (P09715) protein level” value (timepoint 72) was 0.5625. The “TRS1 (P09695) protein level” value (timepoint 72) was 0.5284, the “UL13 (P16755) protein level” value (timepoint 72) was 0.3604 and the “UL36 (P16767) protein level” value (timepoint 72) was 0.601. The “UL37 (P16778) protein level” value (timepoint 72) was 0.719, the “UL122 (P19893) protein level” value (timepoint 72) was 0.05427 and the “UL123 (P13202) protein level” value (timepoint 72) was 0.4451. The “CVC1 (P16799) protein level” value (timepoint 72, L) was 0.09678.
